From patent US20190124918A1, “BIOFILM FORMATION INHIBITOR AND BIOFILM FORMATION INHIBITING COMPOSITION” (KAO CORPORATION, priority 2016, published 2019) come the findings set out here.

Each structure is given as a SMILES string.

The experiment has as its system Pseudomonas PAO1 strain (ATCC 15692). In words: Growth of test microbe (turbidity OD600), 96-well microplate culture. In kind it is cell-based. Put shortly: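 P. aeruginosa PAO1 diluted in Mueller Hinton Broth, exposed to test compound (ethanol stock evaporated onto DMSO in wells) and grown static at 30° C for 24 h; growth read as OD600. Growth inhibition % = (1 − compound OD600/ethanol-control OD600) × 100.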

Consider `CC1=CC(=O)C=CC1=O` [Compound a, p-Toluquinone], for which the “Growth OD600” value reads like this: (final concentration 7 ppm, EtOH control 0.5913) 0.645; (final concentration 20 ppm, EtOH control 0.6346) 0.5907; (final concentration 33 ppm, EtOH control 0.668) 0.6284; (final concentration 67 ppm, EtOH control 0.628) 0.5489; (final concentration 200 ppm, EtOH control 0.6045) 0.3857; (final concentration 333 ppm, EtOH control 0.6088) 0.3334. Also, the “Growth inhibition (%)” value (final concentration 17 ppm) worked out at 14.2%; the “Growth inhibition (%)” value (final concentration 33 ppm) is listed as 15.4%; the “Growth inhibition (%)” value (final concentration 66 ppm) was “— (No growth inhibition or no BF inhibition)”; the “Growth inhibition (%)” value (final concentration 99 ppm) was “— (No growth inhibition or no BF inhibition)”; the “Growth inhibition (%)” value (final concentration 116 ppm) was determined as 1.8%; the “Growth inhibition (%)” value (final concentration 132 ppm) was found to be 1.2%. In addition, the “microbial growth (in words)” value (high concentration range of 200 ppm or more) was “inhibited”.
